Test results: US6407098B1, “Fungicidal aza-heterocycloalkenes” (Bayer Aktiengesellschaft, priority 1995, dated 2002)

Legend:
[1] = system: Erysiphe graminis f.sp. hordei; experiment: Erysiphe test (barley)/protective; format: in vivo; settings: protective, active compound concentration 500 ppm, evaluation 7 days after inoculation
Protocol: Erysiphe test (barley)/protective Solvent: 12.5 parts by weight of N-methyl-pyrrolidone Emulsifier: 0.3 parts by weight of alkylaryl polyglycol ether To produce a suitable preparation of active compound, 1 part by weight of active compound is mixed with the stated amounts of solvent and emulsifier, and the concentrate is diluted with water to the desired concentration. To test for protective activity, young plants are sprayed with the preparation of active compound at the stated application rate. After the spray coating has dried on, the plants are dusted with spores of Erysiphe graminis f.sp. hordei. The plants are placed in a greenhouse at a temperature of about 20° C. and a relative atmospheric humidity of about 80%, in order to promote the development of powdery mildew pustules. Evaluation is carried out 7 days after the inoculation.

Podosphaera leucotricha = experiment: Podosphaera test (apple)/protective; format: in vivo; settings: protective, active compound concentration 100 ppm, evaluation 10 days after inoculation
Protocol: Podosphaera test (apple)/protective Solvent: 4.7 parts by weight of acetone Emulsifier: 0.3 parts by weight of alkylaryl polyglycol ether To produce a suitable preparation of active compound, 1 part by weight of active compound is mixed with the stated amounts of solvent and emulsifier, and the concentrate is diluted with water to the desired concentration. To test for protective activity, young plants are sprayed with the preparation of active compound. After the spray coating has dried on, the plants are inoculated by dusting with conidia of the causative organism of apple mildew (Podosphaera leucotricha). The plants are then placed in a greenhouse at 23° C. and a relative atmospheric humidity of about 70%. Evaluation is carried out 10 days after the inoculation.

Venturia inaequalis = experiment: Venturia test (apple)/protective; format: in vivo; settings: protective, active compound concentration 500 ppm, evaluation 12 days after inoculation
Protocol: Venturia test (apple)/protective Solvent: 12.5 parts by weight of acetone Emulsifier: 0.3 parts by weight of alkylaryl polyglycol ether To produce a suitable preparation of active compound, 1 part by weight of active compound is mixed with the stated amounts of solvent and emulsifier, and the concentrate is diluted with water to the desired concentration. To test for protective activity, young plants are sprayed with the preparation of active compound until dripping wet. After the spray coating has dried on, the plants are inoculated with an aqueous conidia suspension of the apple scab causative organism Venturia inaequalis and then remain in an incubation cabin at 20° C. and 100% relative atmospheric humidity for 1 day. The plants are then placed in a greenhouse at 20° C. and a relative atmospheric humidity of about 70%. Evaluation is carried out 12 days after the inoculation.

Sphaerotheca fuliginea = experiment: Sphaerotheca test (cucumber)/protective; format: in vivo; settings: protective, active compound concentration 100 ppm, evaluation 10 days after inoculation
Protocol: Sphaerotheca test (cucumber)/protective Solvent: 4.7 parts by weight of acetone Emulsifier: 0.3 parts by weight of alkylaryl polyglycol ether To produce a suitable preparation of active compound, 1 part by weight of active compound is mixed with the stated amounts of solvent and emulsifier, and the concentrate is diluted with water to the desired concentration. To test for protective activity, young plants are sprayed with the preparation of active compound. After the spray coating has dried on, the plants are dusted with conidia of the fungus Sphaerotheca fuliginea. The plants are then placed in a greenhouse at 23 to 24° C. and at a relative atmospheric humidity of about 75%. Evaluation is carried out 10 days after the inoculation.

logP = format: physicochemical

CO/N=C(/C1=NOCCS1)c1ccccc1COc1ccccc1C [Example I-2, 3-{1-[2-(2-methylphenoxymethyl)phenyl]-1-(methoximino)methyl}-5,6dihydro4H-1,4,2-oxathiazine]
degree of action [1]: 90% | degree of action (Podosphaera leucotricha): 90% | degree of action (Venturia inaequalis): 100% | degree of action (Sphaerotheca fuliginea): 96%

CON=C(C1=NN(C)CCO1)c1ccccc1COc1ccccc1C [Example I-3, 2-{1-methoximino-1-[2-(2-methylphenoxymethyl)-phenyl]-methyl}-4-methyl-5,6-dihydro4H-1,3,4oxadiazine]
logP (logP): 3.54

CO/N=C(/C1=NOCCN1)c1ccccc1COc1ccccc1C [Example I-1, 3-{1-[2-(2-methylphenoxymethyl)-phenyl]-1-(methoximino)-methyl}-5,6-dihydro-4H-1,2,4-oxadiazine]
degree of action [1]: 90% | degree of action (Venturia inaequalis): 100%
